# Reference: PubChem BioAssay AID256 (DTP/NCI, 2004)
# Several values for one entry are separate records, joined by “and”; a condition that tells them apart may be missing. Equal values may be shown once. Inconclusive results and toxic doses are left out.
# System: CD2F1 mice, L1210 leukemia ip, survival T/C
# Assay: NCI In Vivo Anticancer Drug Screen. Data for tumor model L1210 Leukemia (intraperitoneal) in CD2F1 (CDF1) mice
# Conditions: higher = longer survival
# How it was run: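 Read-out first: treated-group measurement over vehicle-control measurement, expressed as a ratio. Animals bore a transplanted tumor line and were dosed with compound or vehicle.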
# [1] = endpoint: mean survival time, dose: 50.0 mg/kg/injection, schedule: Q01DX009 (ip), vehicle: saline with Tween-80
# [2] = endpoint: mean survival time, dose: 100.0 mg/kg/injection, schedule: Q01DX009 (ip), vehicle: saline with Tween-80
# [3] = endpoint: mean survival time, dose: 200.0 mg/kg/injection, schedule: Q01DX009 (ip), vehicle: saline with Tween-80
# [4] = endpoint: mean survival time, dose: 100.0 mg/kg/injection, schedule: Q04DX003 (ip), vehicle: saline
# [5] = endpoint: mean survival time, dose: 100.0 mg/kg/injection, schedule: Q04DX003 (ip), vehicle: saline with Tween-80
# [6] = endpoint: mean survival time, dose: 200.0 mg/kg/injection, schedule: Q04DX003 (ip), vehicle: saline with Tween-80
# [7] = endpoint: mean survival time, dose: 400.0 mg/kg/injection, schedule: Q01DX009 (ip), vehicle: saline with Tween-80
# [8] = endpoint: mean survival time, dose: 400.0 mg/kg/injection, schedule: Q04DX003 (ip), vehicle: saline with Tween-80
# [9] = endpoint: mean survival time, dose: 100.0 mg/kg/injection, schedule: Q01DX001 (ip), vehicle: saline with Tween-80
smiles,measurement,setting,value
COC(=O)CCC(=O)c1ccc(OC)cc1,T/C,"endpoint: mean survival time, dose: 100.0 mg/kg/injection, schedule: Q01DX001 (ip), vehicle: alcohol",92 % of control
same,T/C,"endpoint: mean survival time, dose: 200.0 mg/kg/injection, schedule: Q01DX001 (ip), vehicle: alcohol",92 % of control
same,T/C,"endpoint: mean survival time, dose: 400.0 mg/kg/injection, schedule: Q01DX001 (ip), vehicle: alcohol",101 % of control
O=C1CNC(=O)N1CN1CCOCC1,T/C,"endpoint: median survival time, dose: 50.0 mg/kg/injection, schedule: Q01DX009 (ip), vehicle: Klucel (hydroxypropylcellulose) (HPC)",108 % of control
same,T/C,"endpoint: median survival time, dose: 100.0 mg/kg/injection, schedule: Q01DX009 (ip), vehicle: Klucel (hydroxypropylcellulose) (HPC)",116 % of control
same,T/C,"endpoint: median survival time, dose: 200.0 mg/kg/injection, schedule: Q01DX009 (ip), vehicle: Klucel (hydroxypropylcellulose) (HPC)",116 % of control
same,T/C,"endpoint: median survival time, dose: 400.0 mg/kg/injection, schedule: Q01DX009 (ip), vehicle: Klucel (hydroxypropylcellulose) (HPC)",117 % of control
O=P(Nc1ccccc1)(Oc1c(F)c(F)c(F)c(F)c1F)N(CCCl)CCCl (centres undefined),T/C,"endpoint: mean survival time, dose: 62.5 mg/kg/injection, schedule: Q01DX001 (ip), vehicle: other",87 % of control
same,T/C,"endpoint: mean survival time, dose: 125.0 mg/kg/injection, schedule: Q01DX001 (ip), vehicle: other",107 % of control
same,T/C,"endpoint: mean survival time, dose: 250.0 mg/kg/injection, schedule: Q01DX001 (ip), vehicle: other",96 % of control
same,T/C,"endpoint: mean survival time, dose: 500.0 mg/kg/injection, schedule: Q01DX001 (ip), vehicle: other",96 % of control
CCCCCCCCOC(=O)c1cc([N+](=O)[O-])c(Sc2ncnc3nc[nH]c23)c([N+](=O)[O-])c1,T/C,"endpoint: mean survival time, dose: 11.0 mg/kg/injection, schedule: Q01DX005 (ip), vehicle: other",112 % of control
same,T/C,"endpoint: mean survival time, dose: 12.5 mg/kg/injection, schedule: Q01DX005 (ip), vehicle: other",115 % of control
same,T/C,"endpoint: mean survival time, dose: 25.0 mg/kg/injection, schedule: Q01DX005 (ip), vehicle: other",172 % of control
same,T/C,"endpoint: mean survival time, dose: 50.0 mg/kg/injection, schedule: Q01DX005 (ip), vehicle: other",118 % of control
same,T/C,"endpoint: mean survival time, dose: 100.0 mg/kg/injection, schedule: Q01DX005 (ip), vehicle: other",107 % of control
COc1ccc(CNCCO)cc1,T/C,[1],96 % of control
same,T/C,[2],102 % of control
same,T/C,[3],98 % of control
CC(=O)[CH-]C(=O)C(=O)[CH-]C(C)=O.[Cu+2],T/C,"endpoint: mean survival time, dose: 20.0 mg/kg/injection, schedule: Q01DX001 (ip), vehicle: saline with Tween-80",96 % of control
same,T/C,"endpoint: mean survival time, dose: 40.0 mg/kg/injection, schedule: Q01DX001 (ip), vehicle: saline with Tween-80",96 % of control
same,T/C,"endpoint: mean survival time, dose: 80.0 mg/kg/injection, schedule: Q01DX001 (ip), vehicle: saline with Tween-80",94 % of control
NNC(=O)COc1ccccc1,T/C,"endpoint: mean survival time, dose: 25.0 mg/kg/injection, schedule: Q04DX003 (ip), vehicle: saline",101 % of control
same,T/C,"endpoint: mean survival time, dose: 50.0 mg/kg/injection, schedule: Q04DX003 (ip), vehicle: saline",101 % of control
same,T/C,[4],103 % of control
CCc1ccccc1OS(=O)(=O)c1cccc([N+](=O)[O-])c1,T/C,[2],96 % of control
same,T/C,[5],99 % of control
same,T/C,[3],98 % of control
same,T/C,[6],100 % of control
same,T/C,[7],98 % of control
same,T/C,[8],99 % of control
CC1CCCCN1 (centres undefined),T/C,[9],95 % of control
same,T/C,"endpoint: mean survival time, dose: 400.0 mg/kg/injection, schedule: Q01DX001 (ip), vehicle: saline with Tween-80",95 % of control
[S-]c1n[n+](-c2ccccc2)c(-c2ccccc2)s1,T/C,"endpoint: mean survival time, dose: 75.0 mg/kg/injection, schedule: Q01DX001 (ip), vehicle: saline with Tween-80",95 % of control
same,T/C,"endpoint: mean survival time, dose: 150.0 mg/kg/injection, schedule: Q01DX001 (ip), vehicle: saline with Tween-80",96 % of control
same,T/C,"endpoint: mean survival time, dose: 300.0 mg/kg/injection, schedule: Q01DX001 (ip), vehicle: saline with Tween-80",102 % of control
Cc1ccccc1NC(=O)Oc1c(C)cccc1C,T/C,"endpoint: mean survival time, dose: 100.0 mg/kg/injection, schedule: Q04DX002 (ip), vehicle: saline with Tween-80",97 % of control
same,T/C,"endpoint: mean survival time, dose: 200.0 mg/kg/injection, schedule: Q04DX002 (ip), vehicle: saline with Tween-80",101 % of control
same,T/C,"endpoint: mean survival time, dose: 400.0 mg/kg/injection, schedule: Q04DX002 (ip), vehicle: saline with Tween-80",101 % of control
CCCCCCCCCCCCCCCCOS(=O)(=O)O,T/C,"endpoint: mean survival time, dose: 37.5 mg/kg/injection, schedule: Q01DX009 (ip), vehicle: saline",98 % of control
same,T/C,"endpoint: mean survival time, dose: 75.0 mg/kg/injection, schedule: Q01DX009 (ip), vehicle: saline",97 % of control
same,T/C,"endpoint: mean survival time, dose: 150.0 mg/kg/injection, schedule: Q01DX009 (ip), vehicle: saline",98 % of control
CC(=O)CC1CC2(CCC1=O)OCCO2 (centres undefined),T/C,[2],102 % of control
same,T/C,[5],98 % of control
same,T/C,[3],96 % of control
same,T/C,[6],93 % of control
same,T/C,[7],100 % of control
same,T/C,[8],102 % of control
O=C(C1CCC2(CCCCC2)CC1)n1ccnc1,T/C,"endpoint: mean survival time, dose: 12.5 mg/kg/injection, schedule: Q01DX009 (ip), vehicle: other",95 % of control
same,T/C,"endpoint: mean survival time, dose: 25.0 mg/kg/injection, schedule: Q01DX009 (ip), vehicle: other",89 % of control
same,T/C,"endpoint: mean survival time, dose: 50.0 mg/kg/injection, schedule: Q01DX009 (ip), vehicle: other",106 % of control
same,T/C,"endpoint: mean survival time, dose: 100.0 mg/kg/injection, schedule: Q01DX009 (ip), vehicle: other",93 % of control
same,T/C,"endpoint: mean survival time, dose: 200.0 mg/kg/injection, schedule: Q01DX009 (ip), vehicle: other",97 % of control
C#CCOCC(O)C[As](=O)(O)c1cccc(Cl)c1 (centres undefined),T/C,"endpoint: mean survival time, dose: 6.25 mg/kg/injection, schedule: Q04DX003 (ip), vehicle: saline",104 % of control
O=c1[nH][nH]c2nccnc12,T/C,"endpoint: mean survival time, dose: 12.5 mg/kg/injection, schedule: Q01DX005 (ip), vehicle: water",93 % of control
same,T/C,"endpoint: mean survival time, dose: 25.0 mg/kg/injection, schedule: Q01DX005 (ip), vehicle: water",93 % of control
same,T/C,"endpoint: mean survival time, dose: 50.0 mg/kg/injection, schedule: Q01DX005 (ip), vehicle: water",96 % of control
same,T/C,"endpoint: mean survival time, dose: 100.0 mg/kg/injection, schedule: Q01DX005 (ip), vehicle: water",98 % of control
same,T/C,"endpoint: mean survival time, dose: 200.0 mg/kg/injection, schedule: Q01DX005 (ip), vehicle: water",101 % of control
C/C(=N\NC(=S)N1CC2CCC(CC2)C1)c1nccs1,T/C,"endpoint: median survival time, dose: 3.13 mg/kg/injection, schedule: Q01DX009 (ip), vehicle: saline with Tween-80",103 % of control
same,T/C,"endpoint: median survival time, dose: 6.25 mg/kg/injection, schedule: Q01DX009 (ip), vehicle: saline with Tween-80",112 % of control
same,T/C,"endpoint: median survival time, dose: 12.5 mg/kg/injection, schedule: Q01DX009 (ip), vehicle: saline with Tween-80",113 % of control and 114 % of control and 110 % of control
same,T/C,"endpoint: median survival time, dose: 25.0 mg/kg/injection, schedule: Q01DX009 (ip), vehicle: saline with Tween-80",115 % of control and 104 % of control
same,T/C,"endpoint: median survival time, dose: 50.0 mg/kg/injection, schedule: Q01DX009 (ip), vehicle: saline with Tween-80",120 % of control and 95 % of control and 98 % of control
CCCCS(=O)C(Cl)(CCC)C(C)(C)O (centres undefined),T/C,[5],97 % of control
same,T/C,[6],93 % of control
same,T/C,[8],97 % of control
NC(=S)N/N=C\c1nccc2c(N)cccc12,T/C,"endpoint: mean survival time, dose: 12.5 mg/kg/injection, schedule: Q01DX009 (ip), vehicle: saline with Tween-80",124 % of control
same,T/C,"endpoint: mean survival time, dose: 25.0 mg/kg/injection, schedule: Q01DX009 (ip), vehicle: saline with Tween-80",124 % of control
same,T/C,[1],161 % of control
same,T/C,"endpoint: mean survival time, dose: 75.0 mg/kg/injection, schedule: Q01DX009 (ip), vehicle: saline with Tween-80",121 % of control and 124 % of control
Cc1cccc(CNc2ccc(S(=O)(=O)c3ccc(NCc4cccc(C)n4)cc3)cc2)n1,T/C,[4],97 % of control
same,T/C,"endpoint: mean survival time, dose: 200.0 mg/kg/injection, schedule: Q04DX003 (ip), vehicle: saline",112 % of control
same,T/C,"endpoint: mean survival time, dose: 400.0 mg/kg/injection, schedule: Q04DX003 (ip), vehicle: saline",93 % of control
CN(C)c1ccc(C2(O)C3CCC2CC3)cc1 (centres undefined),T/C,"endpoint: median survival time, dose: 25.0 mg/kg/injection, schedule: Q04DX002 (ip), vehicle: saline with Tween-80",90 % of control
same,T/C,"endpoint: median survival time, dose: 50.0 mg/kg/injection, schedule: Q04DX002 (ip), vehicle: saline with Tween-80",100 % of control
same,T/C,"endpoint: median survival time, dose: 100.0 mg/kg/injection, schedule: Q04DX002 (ip), vehicle: saline with Tween-80",90 % of control
O=C1NC(=NC2CCCCC2)C2(CCNCC2)N1c1ccccc1,T/C,"endpoint: mean survival time, dose: 50.0 mg/kg/injection, schedule: Q01DX001 (ip), vehicle: saline with Tween-80",102 % of control
same,T/C,[9],106 % of control
same,T/C,"endpoint: mean survival time, dose: 200.0 mg/kg/injection, schedule: Q01DX001 (ip), vehicle: saline with Tween-80",104 % of control
CSc1nc(N)c2ncn(C3C=CC(O)CO3)c2n1 (centres undefined),T/C,"endpoint: mean survival time, dose: 50.0 mg/kg/injection, schedule: Q01DX001 (ip), vehicle: saline",106 % of control
same,T/C,"endpoint: mean survival time, dose: 100.0 mg/kg/injection, schedule: Q01DX001 (ip), vehicle: saline",106 % of control
same,T/C,"endpoint: mean survival time, dose: 200.0 mg/kg/injection, schedule: Q01DX001 (ip), vehicle: saline",100 % of control
same,T/C,"endpoint: mean survival time, dose: 400.0 mg/kg/injection, schedule: Q01DX001 (ip), vehicle: saline",116 % of control
